Reference: patent US20250311727A1, “SUBSTITUTED 2-AMINOAZINES AND SALTS THEREOF, AND USE THEREOF AS HERBICIDAL ACTIVE SUBSTANCES” (BAYER AKTIENGESELLSCHAFT, priority 2022, published 2025)

Tests used:
Format in all cases: in vivo
Amaranthus retroflexus [1] = assay: Post-emergence herbicidal efficacy at 80 g/ha, AMARE; conditions: rated visually after about 3 weeks vs untreated controls, 100% = plants have died
Excerpt: (§1) Unwanted plants/weeds: • ABUTH: Abutilon theophrasti • ALOMY: Alopecurus myosuroides • AMARE: Amaranthus retroflexus • DIGSA: Digitaria sanguinalis • ECHCG: Echinochloa crus-galli • KCHSC: Kochia scoparia • LOLRI: Lolium rigidum • MATIN: Matricaria inodora • POAAN: Poa annua • POLCO: Polygonum convolvulus • SETVI: Setaria viridis • STEME: Stellaria media • VERPE: Veronica persica • VIOTR: Viola tricolor A. Post-Emergence Herbicidal Efficacy at 320 g/ha
(§2) Seeds of monocotyledonous and dicotyledonous weeds and crop plants were placed in sandy loam in plastic or organic planting pots, covered with soil and cultivated in a greenhouse under controlled growth conditions. 2 to 3 weeks after sowing, the test plants were treated at the one-leaf stage. The compounds of the invention, formulated in the form of wettable powders (WP) or as emulsion concentrates (EC), were then sprayed onto the green parts of the plants as aqueous suspension or emulsion with addition of 0.5% additive at a water application rate of 600 l/ha (converted). After the test plants had been kept in the greenhouse under optimum growth conditions for about 3 weeks, the activity of the preparations was rated visually in comparison to untreated controls. For example, 100% activity=the plants have died, 0% activity=like control plants.
(§3) Tables B1 to B11 below show the effects of selected compounds of the general formula (I) according to Table 1 on various harmful plants and an application rate corresponding to 80 g/ha, which were obtained by the experimental procedure mentioned above.

Kochia scoparia [2] = assay: Post-emergence herbicidal efficacy at 80 g/ha, KCHSC; conditions: rated visually after about 3 weeks vs untreated controls, 100% = plants have died
Excerpt: as §1, §2, §3

Veronica persica [3] = assay: Post-emergence herbicidal efficacy at 80 g/ha, VERPE; conditions: rated visually after about 3 weeks vs untreated controls, 100% = plants have died
Excerpt: as §1, §2, §3

Amaranthus retroflexus [4] = assay: Pre-emergence herbicide efficacy at 80 g/ha, AMARE; conditions: scored visually after about 3 weeks vs untreated controls, 100% = plants have died
Excerpt: as §1
(§4) Seeds of monocotyledonous and dicotyledonous weed plants and crop plants were placed in plastic or organic planting pots and covered with soil. The compounds of the invention, formulated in the form of wettable powders (WP) or as emulsion concentrates (EC), were then applied to the surface of the covering soil as aqueous suspension or emulsion with addition of 0.5% additive at a water application rate equivalent to 600 l/ha. After the treatment, the pots were placed in a greenhouse and kept under good growth conditions for the test plants. After about 3 weeks, the efficacy of the preparations was scored visually in comparison with untreated controls as percentages. For example, 100% activity=the plants have died, 0% activity=like control plants.
(§5) Tables D1 to D12 below show the effects of selected compounds of the general formula (I) according to Table 1 on various harmful plants and an application rate corresponding to 80 g/ha, which were obtained by the experimental procedure mentioned above.

Digitaria sanguinalis [5] = assay: Pre-emergence herbicide efficacy at 80 g/ha, DIGSA; conditions: scored visually after about 3 weeks vs untreated controls, 100% = plants have died
Excerpt: as §1, §4, §5

Kochia scoparia [6] = assay: Pre-emergence herbicide efficacy at 80 g/ha, KCHSC; conditions: scored visually after about 3 weeks vs untreated controls, 100% = plants have died
Excerpt: as §1, §4, §5

Abutilon theophrasti [7] = assay: Post-emergence herbicidal efficacy at 320 g/ha, ABUTH; conditions: rated visually after about 3 weeks vs untreated controls, 100% = plants have died
Excerpt: as §1
(§6) Seeds of mono- and dicotyledonous weed plants were placed in plastic pots in sandy loam soil (doubly sown with in each case one species of mono- or dicotyledonous weed plants per pot), covered with soil and cultivated in a greenhouse under controlled growth conditions. 2 to 3 weeks after sowing, the test plants were treated at the one-leaf stage. The compounds of the invention, formulated in the form of wettable powders (WP) or as emulsion concentrates (EC), were applied to the green parts of the plants as aqueous suspension or emulsion with addition of 0.5% additive at a water application rate equivalent to 600 litres per hectare. After the test plants had been kept in the greenhouse under optimum growth conditions for about 3 weeks, the activity of the preparations was rated visually in comparison to untreated controls.
(§7) For example, 100% activity=the plants have died, 0% activity=like control plants.
(§8) Tables A1 to A10 below show the effects of selected compounds of the general formula (I) according to Table 1 on various harmful plants and at an application rate corresponding to 320 g/ha, which were obtained by the trial procedure specified above.

Amaranthus retroflexus [8] = assay: Post-emergence herbicidal efficacy at 320 g/ha, AMARE; conditions: rated visually after about 3 weeks vs untreated controls, 100% = plants have died
In short: (§9)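 Visual rating about 3 weeks after treatment, scored against untreated plants on a scale from 0% (no effect) to 100% (dead). Application was foliar, as aqueous WP or EC suspension or emulsion with 0.5% additive at 600 L/ha, on one-leaf-stage greenhouse plants 2–3 weeks old, grown in sandy loam.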

Digitaria sanguinalis [9] = assay: Post-emergence herbicidal efficacy at 320 g/ha, DIGSA; conditions: rated visually after about 3 weeks vs untreated controls, 100% = plants have died
Excerpt: as §1, §6, §7, §8

Echinochloa crus-galli [10] = assay: Post-emergence herbicidal efficacy at 320 g/ha, ECHCG; conditions: rated visually after about 3 weeks vs untreated controls, 100% = plants have died
Excerpt: as §1, §6, §7, §8

Kochia scoparia [11] = assay: Post-emergence herbicidal efficacy at 320 g/ha, KCHSC; conditions: rated visually after about 3 weeks vs untreated controls, 100% = plants have died
In short: as §9

Poa annua [12] = assay: Post-emergence herbicidal efficacy at 320 g/ha, POAAN; conditions: rated visually after about 3 weeks vs untreated controls, 100% = plants have died
Excerpt: as §1, §6, §7, §8

Setaria viridis [13] = assay: Post-emergence herbicidal efficacy at 320 g/ha, SETVI; conditions: rated visually after about 3 weeks vs untreated controls, 100% = plants have died
Excerpt: as §1, §6, §7, §8

Stellaria media [14] = assay: Post-emergence herbicidal efficacy at 320 g/ha, STEME; conditions: rated visually after about 3 weeks vs untreated controls, 100% = plants have died
In short: as §9

Veronica persica [15] = assay: Post-emergence herbicidal efficacy at 320 g/ha, VERPE; conditions: rated visually after about 3 weeks vs untreated controls, 100% = plants have died
In short: as §9

Viola tricolor [16] = assay: Post-emergence herbicidal efficacy at 80 g/ha, VIOTR; conditions: rated visually after about 3 weeks vs untreated controls, 100% = plants have died
Excerpt: as §1, §2, §3

Abutilon theophrasti [17] = assay: Pre-emergence herbicide efficacy at 320 g/ha, ABUTH; conditions: scored visually after about 3 weeks vs untreated controls, 100% = plants have died
Excerpt: as §1
(§10) Seeds of mono- and dicotyledonous weed plants were placed in plastic pots in sandy loam soil (doubly sown with one species each of mono- or dicotyledonous weed plants per pot) and covered with soil. The compounds of the invention, formulated in the form of wettable powders (WP) or as emulsion concentrates (EC), were then applied to the surface of the covering soil as aqueous suspension or emulsion with addition of 0.5% additive at a water application rate of 600 litres per hectare (converted). After the treatment, the pots were placed in a greenhouse and kept under good growth conditions for the test plants. After about 3 weeks, the efficacy of the preparations was scored visually in comparison with untreated controls as percentages.
as §7
(§11) Tables C1 to C12 below show the effects of selected compounds of the general formula (I) according to Table 1 on various harmful plants and at an application rate corresponding to 320 g/ha, which were obtained by the trial procedure specified above.

Amaranthus retroflexus [18] = assay: Pre-emergence herbicide efficacy at 320 g/ha, AMARE; conditions: scored visually after about 3 weeks vs untreated controls, 100% = plants have died
In short: (§12)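 Weed seeds were sown in sandy loam, covered with soil, and the soil surface was sprayed with WP- or EC-formulated compound as aqueous suspension/emulsion plus 0.5% additive at 600 L/ha water. Pots stood in a greenhouse; about 3 weeks later efficacy was scored visually as % versus untreated controls (100% = plants dead, 0% = like control).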

Digitaria sanguinalis [19] = assay: Pre-emergence herbicide efficacy at 320 g/ha, DIGSA; conditions: scored visually after about 3 weeks vs untreated controls, 100% = plants have died
Excerpt: as §1, §10, §7, §11

Echinochloa crus-galli [20] = assay: Pre-emergence herbicide efficacy at 320 g/ha, ECHCG; conditions: scored visually after about 3 weeks vs untreated controls, 100% = plants have died
Excerpt: as §1, §10, §7, §11

Kochia scoparia [21] = assay: Pre-emergence herbicide efficacy at 320 g/ha, KCHSC; conditions: scored visually after about 3 weeks vs untreated controls, 100% = plants have died
Excerpt: as §1, §10, §7, §11

Matricaria inodora [22] = assay: Pre-emergence herbicide efficacy at 320 g/ha, MATIN; conditions: scored visually after about 3 weeks vs untreated controls, 100% = plants have died
Excerpt: as §1, §10, §7, §11

Poa annua [23] = assay: Pre-emergence herbicide efficacy at 320 g/ha, POAAN; conditions: scored visually after about 3 weeks vs untreated controls, 100% = plants have died
Excerpt: as §1, §10, §7, §11

Setaria viridis [24] = assay: Pre-emergence herbicide efficacy at 320 g/ha, SETVI; conditions: scored visually after about 3 weeks vs untreated controls, 100% = plants have died
In short: as §12

Stellaria media [25] = assay: Pre-emergence herbicide efficacy at 320 g/ha, STEME; conditions: scored visually after about 3 weeks vs untreated controls, 100% = plants have died
Excerpt: as §1, §10, §7, §11

Veronica persica [26] = assay: Pre-emergence herbicide efficacy at 320 g/ha, VERPE; conditions: scored visually after about 3 weeks vs untreated controls, 100% = plants have died
Excerpt: as §1, §10, §7, §11

Abutilon theophrasti [27] = assay: Pre-emergence herbicide efficacy at 80 g/ha, ABUTH; conditions: scored visually after about 3 weeks vs untreated controls, 100% = plants have died
Excerpt: as §1, §4, §5

Echinochloa crus-galli [28] = assay: Pre-emergence herbicide efficacy at 80 g/ha, ECHCG; conditions: scored visually after about 3 weeks vs untreated controls, 100% = plants have died
Excerpt: as §1, §4, §5

Matricaria inodora [29] = assay: Pre-emergence herbicide efficacy at 80 g/ha, MATIN; conditions: scored visually after about 3 weeks vs untreated controls, 100% = plants have died
Excerpt: as §1, §4, §5

Polygonum convolvulus = assay: Pre-emergence herbicide efficacy at 80 g/ha, POLCO; conditions: scored visually after about 3 weeks vs untreated controls, 100% = plants have died
Excerpt: as §1, §4, §5

Setaria viridis [30] = assay: Pre-emergence herbicide efficacy at 80 g/ha, SETVI
Excerpt: as §1, §4, §5

Veronica persica [31] = assay: Pre-emergence herbicide efficacy at 80 g/ha, VERPE
Excerpt: as §1, §4, §5

Viola tricolor [32] = assay: Pre-emergence herbicide efficacy at 80 g/ha, VIOTR
Excerpt: as §1, §4, §5

Structure (SMILES)	Post-emergence efficacy at 80 g/ha against AMARE in % (Amaranthus retroflexus [1]) [%]	Post-emergence efficacy at 80 g/ha against KCHSC in % (Kochia scoparia [2]) [%]	Post-emergence efficacy at 80 g/ha against VERPE in % (Veronica persica [3]) [%]	Pre-emergence efficacy at 80 g/ha against AMARE in % (Amaranthus retroflexus [4]) [%]	Pre-emergence efficacy at 80 g/ha against DIGSA in % (Digitaria sanguinalis [5]) [%]	Pre-emergence efficacy at 80 g/ha against KCHSC in % (Kochia scoparia [6]) [%]	Post-emergence efficacy at 320 g/ha against ABUTH in % (Abutilon theophrasti [7]) [%]	Post-emergence efficacy at 320 g/ha against AMARE in % (Amaranthus retroflexus [8]) [%]	Post-emergence efficacy at 320 g/ha against KCHSC in % (Kochia scoparia [11]) [%]	Post-emergence efficacy at 320 g/ha against SETVI in % (Setaria viridis [13]) [%]	Post-emergence efficacy at 320 g/ha against STEME in % (Stellaria media [14]) [%]	Post-emergence efficacy at 320 g/ha against VERPE in % (Veronica persica [15]) [%]	Pre-emergence efficacy at 320 g/ha against AMARE in % (Amaranthus retroflexus [18]) [%]	Pre-emergence efficacy at 320 g/ha against DIGSA in % (Digitaria sanguinalis [19]) [%]	Pre-emergence efficacy at 320 g/ha against KCHSC in % (Kochia scoparia [21]) [%]	Pre-emergence efficacy at 320 g/ha against VERPE in % (Veronica persica [26]) [%]	also measured
Clc1cnc(Cc2ccccc2Nc2ncc(Cl)cn2)nc1 [Example 1-51]	100	100	80	100	80	100	–	–	–	–	–	–	–	–	–	–	–
Cc1cnn(-c2c(C#N)cccc2Nc2ncc(Cl)cn2)c1 [Example 1-66]	100	80	90	100	100	100	100	100	100	90	100	100	100	100	100	100	Post-emergence efficacy at 320 g/ha against DIGSA in % (Digitaria sanguinalis [9]): 90%; Post-emergence efficacy at 320 g/ha against ECHCG in % (Echinochloa crus-galli [10]): 100%; Post-emergence efficacy at 320 g/ha against POAAN in % (Poa annua [12]): 100%; Post-emergence efficacy at 80 g/ha against VIOTR in % (Viola tricolor [16]): 90%; Pre-emergence efficacy at 320 g/ha against ABUTH in % (Abutilon theophrasti [17]): 100%; Pre-emergence efficacy at 320 g/ha against ECHCG in % (Echinochloa crus-galli [20]): 100%; Pre-emergence efficacy at 320 g/ha against MATIN in % (Matricaria inodora [22]): 90%; Pre-emergence efficacy at 320 g/ha against POAAN in % (Poa annua [23]): 100%; Pre-emergence efficacy at 320 g/ha against SETVI in % (Setaria viridis [24]): 100%; Pre-emergence efficacy at 320 g/ha against STEME in % (Stellaria media [25]): 100%; Pre-emergence efficacy at 80 g/ha against ABUTH in % (Abutilon theophrasti [27]): 80%; Pre-emergence efficacy at 80 g/ha against ECHCG in % (Echinochloa crus-galli [28]): 90%; Pre-emergence efficacy at 80 g/ha against MATIN in % (Matricaria inodora [29]): 100%; Pre-emergence efficacy at 80 g/ha against POLCO in % (Polygonum convolvulus): 80%; Pre-emergence efficacy against SETVI (Setaria viridis [30]): 90%; Pre-emergence efficacy against VERPE (Veronica persica [31]): 100%; Pre-emergence efficacy against VIOTR (Viola tricolor [32]): 100%
COCc1cnn(-c2c(C#N)cccc2Nc2ncc(Cl)cn2)c1 [Example 1-68]	–	–	–	–	–	–	90	100	100	90	100	100	100	100	100	90	–
